# Measured values as given in ChEMBL document CHEMBL1151214, “Pentacyclic triterpenoid esters from the fruits of Bruguiera cylindrica” (J Nat Prod, 2004).
# The source made the active and inactive calls. The calls are words filed in the database; no cut-off is given here.
# Columns and labels:
# Format in all cases: functional, cell-based
# NCI-H187 = assay: Cytotoxicity against human NCI-H187 cells by colorimetric method
# BC = assay: Cytotoxicity against human BC cells by colorimetric method
# KB = assay: Cytotoxicity against human KB cells by colorimetric method
Compound,IC50 (NCI-H187),Activity (BC),Activity (KB),Activity (NCI-H187)
COc1cc(/C=C\C(=O)O[C@@H]2CC[C@]3(C)[C@H]4CC[C@]5(C)C(=CC[C@@]6(C)CCC(C)(C)C[C@H]65)[C@]4(C)CC[C@H]3C2(C)C)ccc1O,12.2 µg/mL,inactive,inactive,–
CC1(C)CC[C@]2(C)CC=C3[C@]4(C)CC[C@H]5C(C)(C)[C@H](OC(=O)/C=C/c6ccc(O)cc6)CC[C@]5(C)[C@H]4CC[C@@]3(C)[C@@H]2C1,–,inactive,inactive,inactive
CC1(C)CC[C@]2(C)CC=C3[C@]4(C)CC[C@H]5C(C)(C)[C@H](OC(=O)/C=C\c6ccc(O)cc6)CC[C@]5(C)[C@H]4CC[C@@]3(C)[C@@H]2C1,20 µg/mL,inactive,inactive,–
COc1cc(/C=C/C(=O)O[C@@H]2CC[C@]3(C)[C@H]4CC[C@]5(C)C(=CC[C@@]6(C)CCC(C)(C)C[C@H]65)[C@]4(C)CC[C@H]3C2(C)C)ccc1O,–,inactive,inactive,inactive
COc1cc(/C=C/C(=O)O[C@H]2CC[C@]3(C)[C@H]4CC[C@]5(C)C(=CC[C@@]6(C)CCC(C)(C)C[C@H]65)[C@]4(C)CC[C@H]3C2(C)C)ccc1O,–,inactive,inactive,inactive
